Results reported in ChEMBL document CHEMBL1127252, “Anti-solid tumor efficacy and preparation of N-[[1-[[2-(diethylamino)ethyl]amino]-9-oxo-9H-thioxanthen-4-yl]methyl]methanesulfonamide (win 33377) and related derivatives” (1994).

Experiments:
Format in all cases: functional
Mus musculus [1] = species: Mus musculus; assay: Percent tumor growth inhibition in mice.
Mus musculus [2] = species: Mus musculus; assay: Survival (Long Term Cure) of tumor inoculated mice after 100 days.
Mus musculus [3] = assay: The maximum tolerated total dose following i.v. administration in mice.
Mus musculus [4] = species: Mus musculus; assay: Log cell kill of tumor (indicating the tumor growth delay) in mice.
Mus musculus [5] = assay: Maximum tolerated total dose (MTD) was determined after intravenous administration in mice

Structure (SMILES) | T/C (Mus musculus [1]) [%] | LTC (Mus musculus [2]) | MTD (Mus musculus [3]) [mg/kg] | LCK (Mus musculus [4]) | MTD (Mus musculus [5]) [mg/kg]
CCN(CC)CCNc1ccc(CNC(=O)OC)c2sc3ccc(OC)cc3c(=O)c12 | 0 | 5 | 240 | >4.5 | 
CCN(CC)CCNc1ccc(CNC)c2sc3ccc(OC)cc3c(=O)c12 | 0 | 1 | 880 | 5.1 | 
CCN(CC)CCNc1ccc(CNS(C)(=O)=O)c2sc3ccccc3c(=O)c12 | 0 | 3 |  | 2 | 124
CCN(CC)CCNc1ccc(CO)c2sc3ccccc3c(=O)c12 [HYCANTHONE] | 4 | 0 | 290 | 3.4 | 
CCN(CC)CCNc1ccc(CNC=O)c2sc3ccccc3c(=O)c12 | 0 | 1 | 576 | 3 | 
CCN(CC)CCNc1ccc(CNC)c2sc3ccc(O)cc3c(=O)c12 | 0 | 0 | 60 | 4.6 | 
CCN(CC)CCNc1ccc(CNC(=O)C(F)(F)F)c2sc3ccccc3c(=O)c12 | 21 | 0 | 1171 | 1.5 | 
CCOP(=O)(NCc1ccc(NCCN(CC)CC)c2c(=O)c3ccccc3sc12)OCC | 36 | 0 | 1298 | <0.5 | 
CCN(CC)CCNc1ccc(CNS(C)(=O)=O)c2sc3ccc(OC)cc3c(=O)c12 | 0 | 1 | 248 | 6.5 | 
CCN(CC)CCNc1ccc(CNC(=O)OC)c2sc3ccccc3c(=O)c12 | 0 | 2 | 248 | 8.8 | 
CCN(CC)CCNc1ccc(CN(C)S(C)(=O)=O)c2sc3ccccc3c(=O)c12 | 0 | 1 | 304 | 2.5 | 
CCN(CC)CCNc1ccc(CNC)c2sc3ccccc3c(=O)c12 | 0 | 1 | 800 | 3.1 | 
CCN(CC)CCNc1ccc(CN(C)C)c2sc3ccccc3c(=O)c12 | 23 | 0 | 544 | 0.9 | 
CCN(CC)CCNc1ccc(CNC(C)=O)c2sc3ccccc3c(=O)c12 | 0 | 3 | 540 | 2.7 | 
COc1cccc2c1C(=O)c1c(O)c3c(c(O)c1C2=O)C[C@@](O)(C(=O)CO)C[C@@H]3O[C@H]1C[C@H](N)[C@H](O)[C@H](C)O1 [DOXORUBICIN] | 0 | 1 | 18 | 2.9 | 
CCN(CC)CCNc1ccc(CNC(=O)c2ccccc2)c2sc3ccccc3c(=O)c12 | 26 | 1 | 252 | 0.5 | 
CCN(CC)CCNc1ccc(CNS(=O)(=O)c2ccccc2)c2sc3ccccc3c(=O)c12 | 0 | 1 | 840 | 2.9 | 
CCN(CC)CCNc1ccc(CN)c2sc3ccccc3c(=O)c12 | 0 | 4 | 270 | >4 | 
CCN(CC)CCNc1ccc(CNS(C)(=O)=O)c2sc3ccc(O)cc3c(=O)c12 | 11 | 0 | 47 | 3.7 | 
